The term Cmax denotes the peak of the concentration-time curve. A word on the clearance: it is the rate of elimination divided by the concentration.

The text below walks through data of patent US20070129342A1, “Compositions Containing Ansamycin” (priority 2005, published 2007).

Read-outs that look alike come from different tables or passages of the source.

The format of series [1] is physicochemical. The protocol:
It should be noted that other secondary emulsifiers (e.g., dimyristylphosphatidylglycerol (DMPG), Solutol HS15, and Tween 80) were tested at refrigerated temperature for droplet size stability improvement.

The conditions of series [2]: adult patients, cited from earlier work; for Cmax: read-out: Plasma Cmax.

In the case of Tween 80, the “effect of secondary emulsifier on droplet size stability of the emulsion” value (“effect of secondary emulsifier” below) in series [1] is listed as “did not improve the droplet size stability”.

As for `C=CCNC1=C2C[C@@H](C)C[C@H](OC)[C@H](O)[C@@H](C)/C=C(\C)[C@H](OC(N)=O)[C@@H](OC)/C=C\C=C(/C)C(=O)NC(=CC1=O)C2=O` [Formulation 17-AAG, 17-(allylamino)-17-demethoxygeldanamycin], the Cmax in series [2] (at 40 mg/m^2) was 1860 ± 660 nM. Moreover, the Cmax in series [2] (at 56 mg/m^2) was 3170 ± 1310 nM. Further, in series [2] (daily 1-hour infusion for 5 days every three weeks), the “maximum tolerated dose (MTD)” value is recorded as 40 mg/m^2. Further, in series [2] (mean±SD), the clearance is 41.0 ± 13.5 L/h and the terminal half-life is 2.5 ± 0.5 h.

On to `CCCCCCCCCCCCCC(=O)OCC(COP(=O)(O)OCC(O)CO)OC(=O)CCCCCCCCCCCCC` (centres unmarked) [DMPG, dimyristylphosphatidylglycerol], for which, in series [1], the “effect of secondary emulsifier” value was “resulted in a viscous emulsion that would be difficult to draw a syringe”.

As for `CCCCCCCC/C=C\CCCCCCCC(=O)O` [oleic acid, cis-9-octadecenoic acid], the “effect of secondary emulsifier” value in series [1] was “showed improved stability”.
